The record followed here is patent US20260226048A1, “MULTI-CYCLIC IRAK AND FLT3 INHIBITING COMPOUNDS AND USES THEREOF” (CHILDREN'S HOSPITAL MEDICAL CENTER, priority 2023, published 2026).

One may read the IC50 as the concentration needed to halve the response being measured. What is called Kd is the constant that tells how readily two partners part at equilibrium.

Like-named read-outs stand apart in the source and are kept apart here.

For test [1], the system named is NF-κB-inducible SEAP reporter in THP-1-Blue NF-κB cells. Put plainly: NF-kB SEAP reporter assay in THP-1-Blue NF-κB cells. The format is cell-based. To be noted: 24 hours. The method, boiled down:
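Cells (1×10^5/well) stimulated with Pam3CSK4 (1 ng/mL) or hIL1B (1 ng/mL), then after 10-20 min given 10-point 1:10 compound dilutions from 1 μM or 3 μM for 24 h at 37° C. Secreted SEAP in supernatant read with QUANTI-Blue (30-60 min, 37° C) at 620 nm.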
For orientation: A reporter such as luciferase makes a cellular process visible.

Another test concerns THP1 cells (FLT3 WT). Nature of the test: Combination drug screening with venetoclax in THP1 cells (Cell Titre Glo, 10 × 10). It counts as cell-based. To be noted: for Excess HSA (sum excess HSA score, combination with venetoclax): 10 × 10 dataset, Cell Titre Glo at 48 hours, optimal of 4 dose combinations, negative = synergy; for Concentration needed to decrease the 312.5 nM Venetoclax response to <20%: Cell Titer Glo at 48 hours. On the procedure: These assays were performed using the Cell Titre Glo assay, measured at 48 hours.
A smaller concentration indicates higher potency to synergize with Venetoclax.
In general terms: Cellular ATP, detected with luciferase, serves as a proxy for viable cell number.

Another test addresses T1, FLT3 K663Q (Homo sapiens, UniProt P36888, K663Q).
T1 construct: purchased DiscoverX (KINOMEscan); host or cells: E. coli BL21-derived host (T7 phage) or HEK-293
T1 sequence (P36888 27-993 K663Q): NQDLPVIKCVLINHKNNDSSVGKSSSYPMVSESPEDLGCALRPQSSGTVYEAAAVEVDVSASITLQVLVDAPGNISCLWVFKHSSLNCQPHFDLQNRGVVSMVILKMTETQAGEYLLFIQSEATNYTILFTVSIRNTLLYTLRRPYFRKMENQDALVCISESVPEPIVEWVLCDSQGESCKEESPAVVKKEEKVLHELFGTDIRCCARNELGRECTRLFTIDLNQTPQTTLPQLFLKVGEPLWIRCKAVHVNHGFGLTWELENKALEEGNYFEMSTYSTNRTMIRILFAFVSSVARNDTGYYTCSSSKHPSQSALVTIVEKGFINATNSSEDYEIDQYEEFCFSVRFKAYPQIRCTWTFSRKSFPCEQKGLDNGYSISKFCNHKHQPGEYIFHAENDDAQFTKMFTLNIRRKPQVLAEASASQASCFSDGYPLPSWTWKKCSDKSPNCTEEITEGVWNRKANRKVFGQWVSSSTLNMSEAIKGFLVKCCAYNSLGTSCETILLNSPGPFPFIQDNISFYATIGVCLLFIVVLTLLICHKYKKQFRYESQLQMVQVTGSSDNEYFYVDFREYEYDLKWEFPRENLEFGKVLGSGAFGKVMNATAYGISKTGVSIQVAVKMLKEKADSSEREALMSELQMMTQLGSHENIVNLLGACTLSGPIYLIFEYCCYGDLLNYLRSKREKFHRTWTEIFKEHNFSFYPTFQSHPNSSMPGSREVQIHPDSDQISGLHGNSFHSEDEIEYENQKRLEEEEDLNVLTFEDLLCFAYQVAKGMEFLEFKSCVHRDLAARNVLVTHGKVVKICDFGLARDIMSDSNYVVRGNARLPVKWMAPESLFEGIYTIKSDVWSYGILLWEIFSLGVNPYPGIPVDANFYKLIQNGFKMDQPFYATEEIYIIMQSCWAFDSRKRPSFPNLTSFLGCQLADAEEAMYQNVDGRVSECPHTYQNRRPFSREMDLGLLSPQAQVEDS
Put plainly: DiscoverX KINOMEscan competition binding assay, FLT3 K663Q. The note with it: 11-point 3-fold dilution. From the text:
[…]. […] As a result, the data report thermodynamic interaction affinities (Kd values), rather than IC50 values that are dependent on ATP concentrations. The assay uses a DNA-tagged version of the protein kinase, and an immobilized ligand bound to a solid support. Compounds that directly or indirectly prevent kinase binding to the immobilized ligand reduce the amount of kinase captured on the solid support, which is detected using an ultra-sensitive qPCR method. Affinity constants reported from the assay have been reported to be independent of the immobilized ligand used that is coupled to the solid support (See supplemental information in Fabian, M. A. et. al., (2005) Nat. Biotechnol. 23, 329-336; Wodicka, L. M. et. al., (2010) Chem. Biol. 17, 1241-1249.)
Kinase-tagged T7 phage strains were prepared in an E. coli host derived from the BL21 strain. E. coli were grown to log-phase and infected with T7 phage and incubated with shaking at 32° C. until lysis. The lysates were centrifuged and filtered to remove cell debris. The remaining kinases were produced in HEK-293 cells and subsequently tagged with DNA for qPCR detection. Streptavidin-coated magnetic beads were treated with biotinylated small molecule ligands for 30 minutes at room temperature to generate affinity resins for kinase assays. The liganded beads were blocked with excess biotin and washed with blocking buffer (SeaBlock (Pierce), 1% BSA, 0.05% Tween 20, 1 mM DTT) to remove unbound ligand and to reduce non-specific binding. […] Test compounds were prepared as 111× stocks in 100% DMSO. Kds were determined using an 11-point 3-fold compound dilution series with three DMSO control points. All compounds for Kd measurements are distributed by acoustic transfer (non-contact dispensing) in 100% DMSO. The compounds were then diluted directly into the assays such that the final concentration of DMSO was 0.9%. All reactions were performed in polypropylene 384-well plates. Each was a final volume of 0.02 mL. […] The kinase concentration in the eluates was measured by qPCR.
Binding constants (Kds) were calculated with a standard dose-response curve using the Hill equation. The Hill Slope was set to −1. Curves were fitted using a non-linear least square fit with the Levenberg-Marquardt algorithm.

Setting [2] is: THP-1-Blue NF-κB cells stimulated with Pam3CSK4 (1 ng/mL), read-out: NF-κB Pam3SCK4 IC50.
Setting [3] is: THP-1-Blue NF-κB cells stimulated with hIL1B (1 ng/mL), read-out: NF-κB IL1B IC50.

As for `CC(O)(c1ccc2ncc(-c3ccnc(N[C@@H]4CCCNC4)n3)n2c1)C(F)(F)F` (single isomer, unassigned) [Compound 23a], the IC50 in test [1] (setting [2]) is 0.056 µM; in test [1] (setting [3]) it was 0.096 µM.
Turning to `CC(O)(c1ccc2ncc(-c3ccnc(N[C@H]4CNCC[C@@H]4F)n3)n2c1)C(F)(F)F` (single isomer, unassigned) [Compound 25a], the concentration for half-maximal inhibition (IC50) in test [1] (setting [2]) worked out at 0.193 µM. The IC50 in test [1] (setting [3]) came to 0.152 µM. Further, in the test with THP1 cells (FLT3 WT), the “Excess HSA (sum excess HSA score, combination with venetoclax)” value (from here on “Excess HSA”) is −1386 and the “Concentration needed to decrease the 312.5 nM Venetoclax response to <20%” value is 1.25 µM.
Consider `CC(O)(c1ccc2ncc(-c3cncc(N[C@@H]4CCCNC4)n3)n2c1)C(F)(F)F` (single isomer, unassigned) [Compound 28a], for which the IC50 came to 0.096 µM in test [1] (setting [2]) and 0.149 µM in test [1] (setting [3]).
Taken in the same sequence, the figures for `CC(O)(c1ccc2ncc(-c3cncc(N[C@H]4CNCC[C@@H]4F)n3)n2c1)C(F)(F)F` (single isomer, unassigned) [Compound 31a] were 0.138 µM and 0.1 µM.
With `COc1cc2ncc(-c3nc(N[C@H]4CNCC[C@@H]4F)ncc3F)n2nc1C1CC1` [Compound 1a, 4-(6-cyclopropyl-7-methoxyimidazo[1,2-b]pyridazin-3-yl)-5-fluoro-N-((3S,4S)-4-fluoropiperidin-3-yl)pyrimidin-2-amine], the equilibrium dissociation constant (Kd) at FLT3 K663Q turned out to be 0.00027 µM. In addition, the IC50 in test [1] (setting [2]) was found to be 0.017 µM. The concentration for half-maximal inhibition (IC50) in test [1] (setting [3]) came out at 0.022 µM. Also, in the test with THP1 cells (FLT3 WT), the “Excess HSA” value is given as −696.6 and the “Concentration needed to decrease the 312.5 nM Venetoclax response to <20%” value worked out at 2.5 µM.
The molecule `FC(F)COc1cc2ncc(-c3ccnc(N[C@H]4CNCC[C@@H]4F)n3)n2nc1C1CC1` [Compound 4a, 4-(6-cyclopropyl-7-(2,2-difluoroethoxy)imidazo[1,2-b]pyridazin-3-yl)-N-((3 S,4S)-4-fluoropiperidin-3-yl)pyrimidin-2-amine] showed an equilibrium dissociation constant (Kd) on FLT3 K663Q of 0.0023 µM. Also, the values for the IC50 in test [1] (setting [2]) and in test [1] (setting [3]) were 0.184 µM and 0.166 µM, respectively. The “Excess HSA” value with THP1 cells (FLT3 WT) is recorded as −2433. Also, the “Concentration needed to decrease the 312.5 nM Venetoclax response to <20%” value in the test with THP1 cells (FLT3 WT) amounted to 2.5 µM.
As to `F[C@H]1CCNC[C@@H]1Nc1nccc(-c2cnc3cc(OC4CC4)c(C4CC4)nn23)n1` [Compound 12a, 4-(7-cyclopropoxy-6-cyclopropylimidazo[1,2-b]pyridazin-3-yl)-N-((3S,4S)-4-fluoropiperidin-3-yl)pyrimidin-2-amine], the IC50 in test [1] (setting [2]) was found to be 0.382 µM; in test [1] (setting [3]), 0.22 µM. Also, the “Excess HSA” value in the test with THP1 cells (FLT3 WT) was −1770.6140. For the same molecule, the “Concentration needed to decrease the 312.5 nM Venetoclax response to <20%” value in the test on THP1 cells (FLT3 WT) turned out to be 5 µM.
Molecule `COc1cc2ncc(-c3nc(N[C@H]4CNCC[C@@H]4F)ncc3F)n2nc1C(C)(C)O` [Compound 45a, 2-(3-(5-fluoro-2-(((3S,4S)-4-fluoropiperidin-3-yl)amino)pyrimidin-4-yl)-7-methoxyimidazo[1,2-b]pyridazin-6-yl)propan-2-ol] yielded a Kd at FLT3 K663Q of 0.0035 µM. In addition, the IC50 in test [1] (setting [2]) amounted to 0.204 µM. For the same molecule, in test [1] (setting [3]), the concentration for half-maximal inhibition (IC50) was determined as 0.351 µM. For the same molecule, in the test with THP1 cells (FLT3 WT), the “Excess HSA” value is given as −1158 and the “Concentration needed to decrease the 312.5 nM Venetoclax response to <20%” value amounted to 10 µM.
Turning to `CC(C)(O)c1ccc2ncc(-c3nc(N[C@@H]4CCCNC4)ncc3F)n2c1` [Compound 48a, (R)-2-(3-(5-fluoro-2-(piperidin-3-ylamino)pyrimidin-4-yl)imidazo[1,2-a]pyridin-6-yl)propan-2-ol], the IC50 in test [1] (setting [2]) stood at 0.056 µM; in test [1] (setting [3]), 0.096 µM. Besides, the “Excess HSA” value in the test with THP1 cells (FLT3 WT) is −759.8. For the same molecule, the “Concentration needed to decrease the 312.5 nM Venetoclax response to <20%” value with THP1 cells (FLT3 WT) is 2.5 µM.
With `COc1cc2ncc(-c3nc(N[C@H]4CNCC[C@@H]4F)ncc3F)n2nc1C1CC(F)(F)C1` [Compound 49a, 4-(6-(3,3-difluorocyclobutyl)-7-methoxyimidazo[1,2-b]pyridazin-3-yl)-5-fluoro-N-((3S,4S)-4-fluoropiperidin-3-yl)pyrimidin-2-amine], the 50% inhibitory concentration (IC50) in test [1] (setting [2]) stood at 0.079 µM. The IC50 in test [1] (setting [3]) came to 0.089 µM. In the test with THP1 cells (FLT3 WT), the “Excess HSA” value was −1767 and the “Concentration needed to decrease the 312.5 nM Venetoclax response to <20%” value was 10 µM.
The corresponding values for `COc1cc2ncc(-c3nc(N[C@@H]4CCCNC4)ncc3F)n2nc1C1CC2(CCC2)C1` [Compound 59a, (R)-5-fluoro-4-(7-methoxy-6-(spiro[3.3]heptan-2-yl)imidazo[1,2-b]pyridazin-3-yl)-N-(piperidin-3-yl)pyrimidin-2-amine] are 0.25 µM, 0.323 µM, −914.4 and 5 µM.
On to `COc1cc2ncc(-c3nc(N[C@H]4CNCC[C@@H]4F)ncc3F)n2nc1C1CC2(CCC2)C1` [Compound 60a, 5-fluoro-N-((3S,4S)-4-fluoropiperidin-3-yl)-4-(7-methoxy-6-(spiro[3.3]heptan-2-yl)imidazo[1,2-b]pyridazin-3-yl)pyrimidin-2-amine], for which the IC50 in test [1] (setting [2]) stood at 0.156 µM. Further, the IC50 in test [1] (setting [3]) was determined as 0.2 µM. Moreover, in the test on THP1 cells (FLT3 WT), the “Excess HSA” value is −1548 and the “Concentration needed to decrease the 312.5 nM Venetoclax response to <20%” value was found to be 5 µM.
The corresponding values for `COc1cc2ncc(-c3ccnc(N[C@H]4CNCC[C@@H]4F)n3)n2nc1C1CCC1` [Compound 79a, 4-(6-cyclobutyl-7-methoxyimidazo[1,2-b]pyridazin-3-yl)-N-((3S,4S)-4-fluoropiperidin-3-yl)pyrimidin-2-amine] are 0.34 µM, 0.271 µM, −994.9 and 5 µM.
The molecule `COc1cc2ncc(-c3nc(N[C@H]4CNCC[C@@H]4F)ncc3F)n2nc1N1CCCS1(=O)=O` [Compound 112a, 2-(3-(5-fluoro-2-(((3S,4S)-4-fluoropiperidin-3-yl)amino)pyrimidin-4-yl)-7-methoxyimidazo[1,2-b]pyridazin-6-yl)isothiazolidine 1,1-dioxide] yielded a Kd on FLT3 K663Q of 0.00031 µM. Besides, the IC50 is 0.235 µM in test [1] (setting [2]) and 0.355 µM in test [1] (setting [3]).
